According to PubChem BioAssay AID1963429 (Molecular Pharmacology Branch, DTP, NCI, 2024):

System: 126254-015-R-J1-PDC complex spheroid growth, % test/control
Experiment: Anticancer human tumor 126254-015-R-J1-PDC patient-derived soft tissue sarcoma cell line growth inhibition [Asc]
Settings: for IC50: curve of first compound; for viability, T/C: stronger effect = lower value; active means viability on the fitted dose curve at most 10% of control; inactive means the rest
Procedure, shortened: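 Complex solid-tumor spheroids incorporating human endothelial and mesenchymal stem cells received single agents or combinations over half-log dilution ranges anchored to clinical Cmax.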
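Further: spheroids exposed to compound for seven days.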
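Wherever viability, T/C is given: 100% = DMSO vehicle control wells.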

Cc1nc(N2CCC3(CC2)COC(C)C3N)c(CO)nc1Sc1ccnc(N)c1Cl (stereo not given) + CCN1C(C(=O)NC23CCC(C(=O)O)(CC2)CC3)C(c2cccc(Cl)c2F)C2(C(=O)Nc3cc(Cl)ccc32)C12CCCCC2
1430 nM: IC50 (second compound 0.03 µM)
1050 nM: IC50 (second compound 0.3 µM)
inactive: viability, T/C (second compound 0.03 µM, first compound 0.00949 µM) 98.5% | viability, T/C (second compound 0.03 µM, first compound 0.03 µM) 87.4% | viability, T/C (second compound 0.03 µM, first compound 0.0949 µM) 81.1% | viability, T/C (second compound 0.03 µM, first compound 0.3 µM) 64.8% | viability, T/C (second compound 0.03 µM, first compound 0.949 µM) 59.5% | viability, T/C (second compound 0.03 µM, first compound 3 µM) 38.8% | viability, T/C (second compound 0.0949 µM, first compound 0.00949 µM) 90.7% | viability, T/C (second compound 0.0949 µM, first compound 0.03 µM) 95.8% | viability, T/C (second compound 0.0949 µM, first compound 0.0949 µM) 86.3% | viability, T/C (second compound 0.0949 µM, first compound 0.3 µM) 63.2% | viability, T/C (second compound 0.0949 µM, first compound 0.949 µM) 47.8% | viability, T/C (second compound 0.0949 µM, first compound 3 µM) 43% | viability, T/C (second compound 0.3 µM, first compound 0.00949 µM) 88.7% | viability, T/C (second compound 0.3 µM, first compound 0.03 µM) 93.5% | viability, T/C (second compound 0.3 µM, first compound 0.0949 µM) 69.9% | viability, T/C (second compound 0.3 µM, first compound 0.3 µM) 60.7% | viability, T/C (second compound 0.3 µM, first compound 0.949 µM) 54.7% | viability, T/C (second compound 0.3 µM, first compound 3 µM) 42.5% | viability, T/C (second compound 0.949 µM, first compound 0.00949 µM) 91.3% | viability, T/C (second compound 0.949 µM, first compound 0.03 µM) 91.2% | viability, T/C (second compound 0.949 µM, first compound 0.0949 µM) 76.8% | viability, T/C (second compound 0.949 µM, first compound 0.3 µM) 59.1% | viability, T/C (second compound 0.949 µM, first compound 0.949 µM) 51.2% | viability, T/C (second compound 0.949 µM, first compound 3 µM) 38.4% | viability, T/C (second compound 3 µM, first compound 0.00949 µM) 98.2% | viability, T/C (second compound 3 µM, first compound 0.03 µM) 87.8% | viability, T/C (second compound 3 µM, first compound 0.0949 µM) 85% | viability, T/C (second compound 3 µM, first compound 0.3 µM) 63.8% | viability, T/C (second compound 3 µM, first compound 0.949 µM) 49.6% | viability, T/C (second compound 3 µM, first compound 3 µM) 39.2%
891 nM: IC50 (second compound 3 µM)
759 nM: IC50 (second compound 0.0949 µM)
785 nM: IC50 (second compound 0.949 µM)

O=C(c1ccc(F)c(F)c1Nc1ccc(I)cc1F)N1CC(O)([C@@H]2CCCCN2)C1 + CNC(C)C(=O)NC1CN(S(=O)(=O)c2cccc(S(=O)(=O)N3CCC4CCC(C(=O)NC(c5ccccc5)c5ccccc5)N4C(=O)C(NC(=O)C(C)NC)C3)c2)CCC2CCC(C(=O)NC(c3ccccc3)c3ccccc3)N2C1=O
164 nM: IC50 (second compound 0.1 µM)
377 nM: IC50 (second compound 0.0316 µM)
594 nM: IC50 (second compound 0.01 µM)
85.2 nM: IC50 (second compound 1 µM)
inactive: viability, T/C (second compound 0.01 µM, first compound 0.00316 µM) 82.4% | viability, T/C (second compound 0.01 µM, first compound 0.01 µM) 87.6% | viability, T/C (second compound 0.01 µM, first compound 0.0316 µM) 79.8% | viability, T/C (second compound 0.01 µM, first compound 0.1 µM) 90.9% | viability, T/C (second compound 0.01 µM, first compound 0.316 µM) 66.9% | viability, T/C (second compound 0.01 µM, first compound 1 µM) 36% | viability, T/C (second compound 0.0316 µM, first compound 0.00316 µM) 84.2% | viability, T/C (second compound 0.0316 µM, first compound 0.01 µM) 72.7% | viability, T/C (second compound 0.0316 µM, first compound 0.0316 µM) 67.9% | viability, T/C (second compound 0.0316 µM, first compound 0.1 µM) 67.2% | viability, T/C (second compound 0.0316 µM, first compound 0.316 µM) 55.1% | viability, T/C (second compound 0.0316 µM, first compound 1 µM) 33% | viability, T/C (second compound 0.1 µM, first compound 0.00316 µM) 59.7% | viability, T/C (second compound 0.1 µM, first compound 0.01 µM) 67.3% | viability, T/C (second compound 0.1 µM, first compound 0.0316 µM) 67.5% | viability, T/C (second compound 0.1 µM, first compound 0.1 µM) 59.6% | viability, T/C (second compound 0.1 µM, first compound 0.316 µM) 37% | viability, T/C (second compound 0.1 µM, first compound 1 µM) 28.1% | viability, T/C (second compound 0.316 µM, first compound 0.00316 µM) 62.5% | viability, T/C (second compound 0.316 µM, first compound 0.01 µM) 62.8% | viability, T/C (second compound 0.316 µM, first compound 0.0316 µM) 54.6% | viability, T/C (second compound 0.316 µM, first compound 0.1 µM) 51.3% | viability, T/C (second compound 0.316 µM, first compound 0.316 µM) 30.1% | viability, T/C (second compound 0.316 µM, first compound 1 µM) 19.1% | viability, T/C (second compound 1 µM, first compound 0.00316 µM) 56.9% | viability, T/C (second compound 1 µM, first compound 0.01 µM) 54.1% | viability, T/C (second compound 1 µM, first compound 0.0316 µM) 54.3% | viability, T/C (second compound 1 µM, first compound 0.1 µM) 49.3% | viability, T/C (second compound 1 µM, first compound 0.316 µM) 27% | viability, T/C (second compound 1 µM, first compound 1 µM) 21.1%
86.6 nM: IC50 (second compound 0.316 µM)

NC(=O)C(=Cn1cnc(-c2cc(C(F)(F)F)cc(C(F)(F)F)c2)n1)c1cncnc1 + CNC(C)C(=O)NC1CN(S(=O)(=O)c2cccc(S(=O)(=O)N3CCC4CCC(C(=O)NC(c5ccccc5)c5ccccc5)N4C(=O)C(NC(=O)C(C)NC)C3)c2)CCC2CCC(C(=O)NC(c3ccccc3)c3ccccc3)N2C1=O
61 nM: IC50 (second compound 0.01 µM)
inactive: viability, T/C (second compound 0.01 µM, first compound 0.000949 µM) 85.8% | viability, T/C (second compound 0.01 µM, first compound 0.003 µM) 87.5% | viability, T/C (second compound 0.01 µM, first compound 0.00949 µM) 73% | viability, T/C (second compound 0.01 µM, first compound 0.03 µM) 64.7% | viability, T/C (second compound 0.01 µM, first compound 0.0949 µM) 41.6% | viability, T/C (second compound 0.0316 µM, first compound 0.000949 µM) 80.4% | viability, T/C (second compound 0.0316 µM, first compound 0.003 µM) 77.7% | viability, T/C (second compound 0.0316 µM, first compound 0.00949 µM) 62.7% | viability, T/C (second compound 0.0316 µM, first compound 0.03 µM) 47.7% | viability, T/C (second compound 0.0316 µM, first compound 0.0949 µM) 25.9% | viability, T/C (second compound 0.1 µM, first compound 0.000949 µM) 58.2% | viability, T/C (second compound 0.1 µM, first compound 0.003 µM) 62.7% | viability, T/C (second compound 0.1 µM, first compound 0.00949 µM) 55.9% | viability, T/C (second compound 0.1 µM, first compound 0.03 µM) 48.9% | viability, T/C (second compound 0.1 µM, first compound 0.0949 µM) 23% | viability, T/C (second compound 0.316 µM, first compound 0.000949 µM) 60% | viability, T/C (second compound 0.316 µM, first compound 0.003 µM) 60.8% | viability, T/C (second compound 0.316 µM, first compound 0.00949 µM) 54.7% | viability, T/C (second compound 0.316 µM, first compound 0.03 µM) 44% | viability, T/C (second compound 0.316 µM, first compound 0.0949 µM) 15.1% | viability, T/C (second compound 1 µM, first compound 0.000949 µM) 51.9% | viability, T/C (second compound 1 µM, first compound 0.003 µM) 57.5% | viability, T/C (second compound 1 µM, first compound 0.00949 µM) 53.4% | viability, T/C (second compound 1 µM, first compound 0.03 µM) 35.8% | viability, T/C (second compound 1 µM, first compound 0.0949 µM) 18.8%
active: viability, T/C (second compound 0.01 µM, first compound 0.3 µM) 9.66% | viability, T/C (second compound 0.0316 µM, first compound 0.3 µM) 9% | viability, T/C (second compound 0.1 µM, first compound 0.3 µM) 5.96% | viability, T/C (second compound 0.316 µM, first compound 0.3 µM) 3.45% | viability, T/C (second compound 1 µM, first compound 0.3 µM) 5.88%
24.3 nM: IC50 (second compound 0.1 µM)
10.5 nM: IC50 (second compound 1 µM)
16.8 nM: IC50 (second compound 0.316 µM)
24.4 nM: IC50 (second compound 0.0316 µM)
